Reference: patent US20220380376A1, “Nitrogen Oxide-Donating PDE-5 and/or PDE-6 Inhibitor Compounds” (ILDONG PHARMACEUTICAL CO., LTD., priority 2019, published 2022)

Columns and labels:
[1] = Plasma protein binding assay (equilibrium dialysis); assay type: in vitro ADME; details: human plasma, 2 μM, dialysis 4 hours at 37° C.
Protocol: The dialysis device used in this example is a 96-well equilibrium dialysis plate (Cat #1006, HT Dialysis LLC, Gales Gerry, CT), and HTD 96 a/b dialysis membrane strips (Cat #1101, MWCO 12-14 kDa, HT Dialysis LLC). The dialysis device was assembled following the manufacturer's instructions.
The dialysis membrane strips were soaked in ultra-pure water at room temperature for approximately 1 hour. Each membrane strip containing 2 membranes was separated and soaked in 20:80 ethanol/water (v/v) for approximately 20 minutes, after which they were ready for used or were stored in the solution at 2-8° C. for up to a month. Prior to experiment, the membrane was rinsed and soaked for 20 minutes in ultra-pure water.
On the day of the experiment, the plasma was thawed by running under col tap water and centrifuged at 3220 rpm for 5 minutes to remove any clos. The pH value of the resulting plasma was checked. Only plasma with pH value with 7.0-8.0 could be used.
Both test and control compounds were dissolved in DMSO to achieve 10 mM stock solutions. Working solutions (400 μM) if test and control compounds were prepared by diluting 10μ p of stock solutions with 240 μL of DMSO. Loading matrix solutions (2 μM) of both test and control compounds were prepared by diluting 5 μL of working solutions with 995 μL of blank matrix.
To prepare the loading matrix containing the test compound or control compounds, aliquots of either test compound working solutions or control compound working solution were spiked into blank matrix to achieve final test concentrations. The concentration of organic solvent in the final solutions were no more than 1% (normally 0.5%). The samples were mixture thoroughly before being used.
To prepare the time zero (TO) samples to be used for recovery determinations. 50 μL aliquots of loading matrix solution were transferred in triplicate to the sample collection plate. The samples were immediately matched with opposite blank buffer to obtain a final volume of 100 μL of 1:1 matrix/dialysis buffer (v/v) in each well. 500 μL of stop solution were added to these TO samples. They were then stored at 2-8° C. pending further processes along with other post-dialysis samples.
To load the dialysis device, an aliquot of 150 μL of the loading matrix was transferred to the donor side of each dialysis well in triplicate, and 150 μL of the dialysis buffer was loaded to the received side of the well. The dialysis was placed in humidified incubator at 37° C. with 5% CO2 on a shaking platform that rated slowly (about 100 rpm) for 4 hours.
At the end of the dialysis, aliquots of 50 μL of samples were taken from both the buffer side and the matrix side of the dialysis deice. These samples were transferred into new 96-well plates (the sample collection plates). […]

human PDE-6C = human PDE-6C (Homo sapiens, UniProt P51160); test: Human PDE-6C inhibition assay (fluorescence polarization); assay type: biochemical; details: human PDE6C, 100 nM FAM-cGMP, 60 minutes at room temperature
Chain of human PDE-6C (P51160 whole entry): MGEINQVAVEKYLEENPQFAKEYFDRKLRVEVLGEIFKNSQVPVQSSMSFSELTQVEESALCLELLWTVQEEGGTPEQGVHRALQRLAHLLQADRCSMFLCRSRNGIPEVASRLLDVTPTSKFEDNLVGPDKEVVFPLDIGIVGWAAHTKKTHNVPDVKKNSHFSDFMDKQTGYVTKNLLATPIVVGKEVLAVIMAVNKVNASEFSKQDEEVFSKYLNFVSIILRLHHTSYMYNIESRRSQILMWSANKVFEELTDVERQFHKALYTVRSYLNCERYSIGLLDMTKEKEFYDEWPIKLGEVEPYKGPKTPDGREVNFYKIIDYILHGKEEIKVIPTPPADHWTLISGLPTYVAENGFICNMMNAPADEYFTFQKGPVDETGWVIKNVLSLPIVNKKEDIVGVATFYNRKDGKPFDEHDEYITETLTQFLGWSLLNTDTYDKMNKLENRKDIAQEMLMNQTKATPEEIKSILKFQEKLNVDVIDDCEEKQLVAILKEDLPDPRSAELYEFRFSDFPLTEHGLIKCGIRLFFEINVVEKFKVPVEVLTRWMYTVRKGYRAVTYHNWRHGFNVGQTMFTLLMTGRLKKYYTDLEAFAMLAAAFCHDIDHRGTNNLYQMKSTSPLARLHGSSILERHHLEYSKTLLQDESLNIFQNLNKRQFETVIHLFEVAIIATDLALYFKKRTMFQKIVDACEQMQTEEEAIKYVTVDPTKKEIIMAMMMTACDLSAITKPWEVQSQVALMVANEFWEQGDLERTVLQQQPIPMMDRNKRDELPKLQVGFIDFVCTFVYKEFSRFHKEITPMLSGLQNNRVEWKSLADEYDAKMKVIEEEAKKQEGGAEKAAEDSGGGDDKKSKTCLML

human PDE-5A1 = human PDE-5A1 (Homo sapiens, UniProt O76074); test: Human PDE-5A1 inhibition assay (fluorescence polarization); assay type: biochemical; details: human PDE5A1, 100 nM FAM-cGMP, 60 minutes at room temperature
[2] = system: ocular normotensive rabbits; test: In vivo intraocular pressure (IOP) lowering effect in rabbits; design: species or system New Zealand white rabbits; details: 50 μL per eye once, right eye vs vehicle in left eye, 1-10 hours post dose
Excerpt: This example illustrates the procedures and results of the intraocular pressure (IOP) lowering effect of compound 18 as compared to Latanoprostene bunod and latanoprost at different concentrations in ocular normotensive rabbits.
Forty (40) male New Zealand white rabbits were divided into 4 groups with 10 animals per group. Animals were then randomly assigned to groups based on body weight.
Latanoprostene bunod ophthalmic solution (LBN, 0.024%) and latanoprost eye drops (0.005%) were used as positive controls and dosed with the same volumes into the right eyes of the tested animals in groups 1 and 2 once.
Compound 18 was instilled into the right eyes of the tested animals in groups 3 (10 mg/mL) and 4 (20 mg/mL) at 50 μL per eye once.
All left eyes of the tested animals in each group were dosed with vehicle solution at 50 μL per eye.
The intraocular pressures (IOPs) were measured once at pre-dose and then once at 1, 2, 4, 6, 8, and 10 hours post dose for each group of animals. FIGS. 1 to 4 show the results from the IOP lowering studies for all four tested groups.

Structure (SMILES)	% Bound [1]	IC50 (human PDE-6C)	IC50 (human PDE-5A1)	IOP lowering effect ([2]; 10 mg/mL)	IOP lowering effect ([2]; 20 mg/mL)
CCCc1nn(C)c2c(=O)[nH]c(-c3cc(S(=O)(=O)N4CC(CCCO)C4)ccc3OCC)nc12 [Compound 4, 5-(2-ethoxy-5-((3-(3-hydroxypropyl)azetidin-1-yl)sulfonyl)phenyl)-1-methyl-3-propyl-1,6-dihydro-7H-pyrazolo[4,3-d]pyrimidin-7-one]	96.01%				
CCCc1nn(C)c2c(=O)[nH]c(-c3cc(S(=O)(=O)N4CC(NCCCO)C4)ccc3OCC)nc12 [Compound 10, 5-(2-ethoxy-5-((3-((3-hydroxypropyl)amino)azetidin-1-yl)sulfonyl)phenyl)-1-methyl-3-propyl-1,6-dihydro-7H-pyrazolo[4,3-d]pyrimidin-7-one]	86.19%	< 0.01 µM	< 0.01 µM		
CCCc1nn(C)c2c(=O)[nH]c(-c3cc(S(=O)(=O)N4CC(CCO[N+](=O)[O-])C4)ccc3OCC)nc12 [Compound 17, 2-(1-((4-ethoxy-3-(1-methyl-7-oxo-3-propyl-6,7-dihydro-1H-pyrazolo [4,3-d]pyrimidin-5-yl)phenyl)sulfonyl)azetidin-3-yl)ethyl nitrate]		< 0.01 µM	< 0.01 µM		

Second part, led by results:

% Bound [1]	IC50 (human PDE-6C)	IC50 (human PDE-5A1)	Structure (SMILES)	IOP lowering effect ([2]; 10 mg/mL)	IOP lowering effect ([2]; 20 mg/mL)
99.52%	< 0.01 µM	< 0.01 µM	CCCc1nn(C)c2c(=O)[nH]c(-c3cc(S(=O)(=O)N4CC(CCCO[N+](=O)[O-])C4)ccc3OCC)nc12 [Compound 18, 3-(1-((4-ethoxy-3-(1-methyl-7-oxo-3-propyl-6,7-dihydro-1H-pyrazolo[4,3-d]pyrimidin-5-yl)phenyl)sulfonyl)azetidin-3-yl)propyl nitrate]	significantly lower the IOP	significantly lower the IOP
97.53%			CCCc1nn(C)c2c(=O)[nH]c(-c3cc(S(=O)(=O)N4CC(NCCCO[N+](=O)[O-])C4)ccc3OCC)nc12 [Compound 22, 3-((1-((4-ethoxy-3-(1-methyl-7-oxo-3-propyl-6,7-dihydro-1H-pyrazolo[4,3-d]pyrimidin-5-yl)phenyl)sulfonyl)azetidin-3-yl)amino)propyl nitrate]		
